Values after ≈ are worked out from the molar mass of the structure shown.
Columns and labels:
[1] = molecular target: T1, mCD1d-Fc fusion protein (Mus musculus, UniProt P11609); test: Antigen presenting cell (APC)-free assay for lipid binding to mCD1d-Fc; IL-2 release by 2E10 NKT hybridoma cells; format: cell-based; set-up: unit not given here; conditions: mean ± SEM; for IL-2 production (exact values of IL-2): ligand 10 nM, Fig. 3a, b; for IL-2 production: ligand 100 nM, Fig. 3c, d
T1 construct: Ig (mouse immunoglobulin fusion partner); purchased BD Biosciences
T1 sequence (P11609 22-305 limits assumed): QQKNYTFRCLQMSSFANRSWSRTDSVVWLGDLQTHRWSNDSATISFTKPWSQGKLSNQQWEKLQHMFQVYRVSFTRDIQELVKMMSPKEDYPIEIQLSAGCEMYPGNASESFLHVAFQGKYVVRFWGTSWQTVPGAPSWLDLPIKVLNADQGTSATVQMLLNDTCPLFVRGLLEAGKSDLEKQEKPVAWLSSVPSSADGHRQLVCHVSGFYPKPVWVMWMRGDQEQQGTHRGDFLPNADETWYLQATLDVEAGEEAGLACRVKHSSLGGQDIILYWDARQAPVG
T1 sequence (P01887 21-119 partner): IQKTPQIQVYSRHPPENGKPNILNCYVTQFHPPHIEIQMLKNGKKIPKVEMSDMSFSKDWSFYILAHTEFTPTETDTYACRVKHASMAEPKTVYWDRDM
Protocol: NKT hybridoma 2E10 cells were cultured in RPMI-1640 (NACALAI TESQUE, INC) supplemented with 10% fetal bovine serum (FBS; Biowest), and 1% penicillin–streptomycin (Gibco).
For this assay, 96-well microplates (Bio-one 96-well cell culture plate, Greiner) were coated with mouse CD1d:Ig Fusion protein (BD Biosciences) (0.25 μg/well) in PBS at 37 °C for 24 h. […] After washing, 2E10 NKT hybridoma cells (2.5 × 10^5 cells/well) were added and cultured at 37 °C for 48 h. IL-2 release was measured with an ELISA kit (Affymetrix).

[2] = tested on: mouse splenocytes; test: Cytokine secretion assay using mouse splenocyte; format: cell-based, C57BL/6 mice; set-up: IFN-γ production / IL-4 production / IL-17A production: unit not given here; conditions: for Relative ratio IL-4/IFN-γ of cytokine production compared to α-GalCer / Relative ratio IL-17A/IFN-γ of cytokine production compared to α-GalCer: 1 nM; for Relative ratio IL-4/IFN-γ of cytokine production compared to α-GalCer: Fig. 5a; for Relative ratio IL-17A/IFN-γ of cytokine production compared to α-GalCer: Fig. 5b; for IL-4 production / IL-17A production / IFN-γ production: 48 h; for cytokine polarization in words: from relative ratios, Fig. 5
Protocol: Spleen cell suspensions (from C57BL/6 mice) were prepared in complete medium (RPMI 1,640 media supplemented with 10% FBS and 1% penicillin–streptomycin) and seeded into 96-well plates (6.0 × 10^5 cells/well). Lipid ligands were added, and the mixture were incubated at 37 °C for 48 h. IFN-γ, IL-4 and IL-17A release were measured with an ELISA kit (Affymetrix).

[3] = Water solubility; format: physicochemical
[4] = Metabolic stability, human liver microsome; format: in vitro ADME; conditions: for half-life: liver microsomes, read-out: metabolic stability (liver microsome, T1/2) human
[5] = Metabolic stability, rat liver microsome; format: in vitro ADME; conditions: for half-life: liver microsomes, read-out: metabolic stability (liver microsome, T1/2) rat
[6] = molecular target: T1, mCD1d-Fc fusion protein; set-up: method as in PMID 27648599; conditions: previously reported; cited from earlier work
[7] = Table S1, dash = below the detection limit (< 5 μM) according to b25

Compound: CCCCCCCCCCCCCC[C@@H](O)[C@@H](O)[C@H](CO[C@H]1O[C@H](CO)[C@H](O)[C@H](O)[C@H]1O)NC(=O)CCCCCCCCCCCNC(=O)NCCCCCCCCCCC [5a]
- IL-2 production (exact values of IL-2) [1]: 85 ± 26

Compound: CCCCCCCCCCCC/C=C/CCCCCCCCCCCC(=O)N[C@@H](CO[C@H]1O[C@H](CO)[C@H](O)[C@H](O)[C@H]1O)[C@H](O)[C@H](O)CCCCCCCCCCCCCC [8a]
- IL-2 production [1]: 1626 ± 371

Compound: CCCCCCCCCCCCCC[C@@H](O)[C@@H](O)[C@H](CO[C@H]1O[C@H](CO)[C@H](O)[C@H](O)[C@H]1O)NC(=O)CCCCCCCCCCCCC(=O)CCCCCC [7b]
- IL-2 production (exact values of IL-2) [1]: 600 ± 20
- Relative ratio IL-4/IFN-γ of cytokine production compared to α-GalCer [2]: 12.7 ± 4.0
- Relative ratio IL-17A/IFN-γ of cytokine production compared to α-GalCer [2]: 48.6 ± 15.6
- IL-4 production ([2]; 10 nM ligand, Fig. 4e): 448 ± 40
- IL-17A production ([2]; 10 nM ligand, Fig. 4f): 656 ± 69
- IFN-γ production ([2]; 10 nM ligand, Fig. 4d): 4,276 ± 261
- cytokine polarization in words [2]: IL-4- and IL-17A-biasing properties

Compound: CCCCCCCCCCCCCC[C@@H](O)[C@@H](O)[C@H](CO[C@H]1O[C@H](CO)[C@H](O)[C@H](O)[C@H]1O)NC(=O)CCCCCCCCCCCN(C)C(=O)CCCCCCCCCCCC [4a]
- IL-2 production (exact values of IL-2) [1]: 749 ± 92
- IFN-γ production ([2]; 1 nM ligand, Fig. 4a): 39,159 ± 4,960
- IL-4 production ([2]; 1 nM ligand, Fig. 4b): 599 ± 13
- solubility [3, 7]: < 5 µM
- metabolic stability in words [4]: metabolized more rapidly
- half-life [4]: 15 min
- metabolic stability in words [5]: metabolized more rapidly
- half-life [5]: 23 min

Compound: CCCCCCCCCCCCCCCCCCCC(=O)N[C@@H](CO[C@H]1O[C@H](CO)[C@H](O)[C@H](O)[C@H]1O)[C@H](O)[C@H](O)CCCCCCCCCCCCCC [C20:0-α-GalCer, reference compound]
- IL-4 production ([2]; 10 nM ligand, Fig. 4e): 85 ± 52
- IL-17A production ([2]; 10 nM ligand, Fig. 4f): 696 ± 38
- IFN-γ production ([2]; 10 nM ligand, Fig. 4d): 1,353 ± 731

Compound: CCCCCCCCCCCCCC[C@@H](O)[C@@H](O)[C@H](CO[C@H]1O[C@H](CO)[C@H](O)[C@H](O)[C@H]1O)NC(=O)CCCCCCCCCCCNCCCCCCCCCCCCC [6a]
- IL-2 production (exact values of IL-2) [1]: 323 ± 41
- IFN-γ production ([2]; 1 nM ligand, Fig. 4a): 8,515 ± 1,016
- IL-4 production ([2]; 1 nM ligand, Fig. 4b): 286 ± 12
- solubility [3, 7]: < 5 µM
- metabolic stability in words [4]: good metabolic stability
- half-life [4]: > 200 min
- metabolic stability in words [5]: good metabolic stability
- half-life [5]: > 200 min

Compound: CCCCCC/C=C\CCCCCCCCCCCC(=O)N[C@@H](CO[C@H]1O[C@H](CO)[C@H](O)[C@H](O)[C@H]1O)[C@H](O)[C@H](O)CCCCCCCCCCCCCC [9b]
- IL-2 production [1]: 925 ± 57

Compound: CCCCCCCCCCCCCC[C@@H](O)[C@@H](O)[C@H](CO[C@H]1O[C@H](CO)[C@H](O)[C@H](O)[C@H]1O)NC(=O)CCCCCCCCCCCCC(=O)CCCCCCCCCCCC [7a]
- IL-2 production (exact values of IL-2) [1]: 424 ± 32

Compound: CCCCCCCCCCCCCC[C@@H](O)[C@@H](O)[C@H](CO[C@H]1O[C@H](CO)[C@H](O)[C@H](O)[C@H]1O)NC(=O)CCCCCCCCCCCNC(=O)CCCCCCCCCCCC [1a]
- IL-2 production (exact values of IL-2) [1]: 177 ± 27
- IL-2 production [1]: 2,502 ± 114
- IFN-γ production ([2]; 1 nM ligand, Fig. 4a): 16,907 ± 3,679
- IL-4 production ([2]; 1 nM ligand, Fig. 4b): 247 ± 19
- IFN-γ production ([2]; 1 nM ligand, Fig. S2a): 9,152 ± 373
- IL-4 production ([2]; 1 nM ligand, Fig. S2b): 232 ± 41
- IL-17A production ([2]; 1 nM ligand, Fig. S2c): 1,276 ± 60
- Relative ratio IL-4/IFN-γ of cytokine production compared to α-GalCer [2]: 1.27 ± 0.23
- Relative ratio IL-17A/IFN-γ of cytokine production compared to α-GalCer [2]: 0.76 ± 0.06
- cytokine polarization in words [2]: relatively less selective cytokine responses
- solubility [3, 7]: < 5 µM
- metabolic stability in words [4]: good metabolic stability
- half-life [4]: 60 min
- metabolic stability in words [5]: good metabolic stability
- half-life [5]: 47 min
- cytokine production / agonistic activity relative to α-GalCer, in words [6]: higher levels of cytokine production relative to that caused by α-GalCer

Compound: CCCCCCCCCCCC/C=C\CCCCCCCCCCCC(=O)N[C@@H](CO[C@H]1O[C@H](CO)[C@H](O)[C@H](O)[C@H]1O)[C@H](O)[C@H](O)CCCCCCCCCCCCCC [9a]
- IL-2 production [1]: 1556 ± 91

Compound: CCCCCCCCCCCCCC[C@@H](O)[C@@H](O)[C@H](CO[C@H]1O[C@H](CO)[C@H](O)[C@H](O)[C@H]1O)NC(=O)CCCCCCCCCCCNC(=O)NCCCCC [5b]
- IL-2 production (exact values of IL-2) [1]: 376 ± 92
- IL-4 production ([2]; 10 nM ligand, Fig. 4e): 723 ± 73
- IL-17A production ([2]; 10 nM ligand, Fig. 4f): 1774 ± 278
- IFN-γ production ([2]; 10 nM ligand, Fig. 4d): 10,799 ± 950

Compound: CCCCCCCCCCCCCC[C@@H](O)[C@@H](O)[C@H](CO[C@H]1O[C@H](CO)[C@H](O)[C@H](O)[C@H]1O)NC(=O)CCCCCCCCCCCNC(=O)CCCCCC [1b]
- IL-2 production (exact values of IL-2) [1]: 662 ± 46
- IFN-γ production ([2]; 1 nM ligand, Fig. S2a): 822 ± 11
- IL-17A production ([2]; 1 nM ligand, Fig. S2c): 976 ± 207
- Relative ratio IL-4/IFN-γ of cytokine production compared to α-GalCer [2]: 5.04 ± 0.90
- Relative ratio IL-17A/IFN-γ of cytokine production compared to α-GalCer [2]: 6.43 ± 1.27
- cytokine polarization in words [2]: IL-4- and IL-17A-biasing properties
- solubility ([3]; detection limit 5 μM): 5 µM (≈ 3.95 µg/mL)
- metabolic stability in words [4]: good metabolic stability
- half-life [4]: > 200 min
- metabolic stability in words [5]: good metabolic stability
- half-life [5]: > 200 min
- cytokine production / agonistic activity relative to α-GalCer, in words [6]: higher levels of cytokine production relative to that caused by α-GalCer

Compound: CCCCCC/C=C/CCCCCCCCCCCC(=O)N[C@@H](CO[C@H]1O[C@H](CO)[C@H](O)[C@H](O)[C@H]1O)[C@H](O)[C@H](O)CCCCCCCCCCCCCC [8b]
- IL-2 production [1]: 334 ± 19

Compound: CCCCCCCCCCCCCC[C@@H](O)[C@@H](O)[C@H](CO[C@H]1O[C@H](CO)[C@H](O)[C@H](O)[C@H]1O)NC(=O)CCCCCCCCCCCN(C)C(=O)CCCCCC [4b]
- IL-2 production (exact values of IL-2) [1]: 546 ± 87
- IL-4 production ([2]; 10 nM ligand, Fig. 4e): 743 ± 11
- IL-17A production ([2]; 10 nM ligand, Fig. 4f): 2095 ± 190
- IFN-γ production ([2]; 10 nM ligand, Fig. 4d): 17,753 ± 542

Compound: CCCCCCCCCCCCCC[C@@H](O)[C@@H](O)[C@H](CO[C@H]1O[C@H](CO)[C@H](O)[C@H](O)[C@H]1O)NC(=O)CCCCCCCCCCCNCCCCCCC [6b]
- IL-2 production (exact values of IL-2) [1]: 74 ± 26
- Relative ratio IL-4/IFN-γ of cytokine production compared to α-GalCer [2]: 18.3 ± 6.8
- Relative ratio IL-17A/IFN-γ of cytokine production compared to α-GalCer [2]: 66.7 ± 27.4
- IL-4 production ([2]; 10 nM ligand, Fig. 4e): 513 ± 11
- IL-17A production ([2]; 10 nM ligand, Fig. 4f): 990 ± 101
- IFN-γ production ([2]; 10 nM ligand, Fig. 4d): 3,764 ± 450
- cytokine polarization in words [2]: IL-4- and IL-17A-biasing properties
